Test results reported in publication PMC7259600, “The crystal structures of Thermus thermophilus CMP kinase complexed with a phosphoryl group acceptor and donor” (PLoS ONE, 2020).

Legend:
[1] = target: T1, ttCMPK (CMP kinase of Thermus thermophilus HB8) (Thermus thermophilus, UniProt Q5SL35); experiment: X-ray crystal structure of the complex (co-crystallisation); assay type: binding; conditions: closed form 1.5 A (3AKE; AMP-PCP and MgCl2 in drop, no AMP-PCP density); open form 2.2 A (3W8N; SeMet protein, MgCl2); phosphoryl acceptor site
T1 construct: gene cmk; full-length, expressed from pET-11a (NdeI/BamHI) in E. coli BL21(DE3), no tag mentioned; SeMet-labelled protein for the CMP open form; residue numbers up to 209
T1 sequence (Q5SL35 1-208): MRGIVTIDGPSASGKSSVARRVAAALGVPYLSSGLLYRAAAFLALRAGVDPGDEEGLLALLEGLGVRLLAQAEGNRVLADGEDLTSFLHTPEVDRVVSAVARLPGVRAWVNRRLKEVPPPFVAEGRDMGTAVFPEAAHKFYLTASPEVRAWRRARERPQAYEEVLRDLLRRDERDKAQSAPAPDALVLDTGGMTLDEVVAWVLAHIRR

[2] = target: T1, ttCMPK (CMP kinase of Thermus thermophilus HB8); experiment: X-ray crystal structure of the ternary complex (crystal soaked with CMP, ATP and GdCl3); assay type: binding; conditions: with CDP and Gd3+; 1.6 A, closed form; phosphoryl donor site

SMILES | X-ray crystal structure of the complex (co-crystallisation) [1] | X-ray crystal structure of the ternary complex (crystal soaked with CMP, ATP and) [2]
Nc1ccn([C@@H]2O[C@H](COP(=O)(O)O)[C@@H](O)[C@H]2O)c(=O)n1 [CMP] | 3W8N (CMP "open" complex), 3AKE (CMP "closed" complex) | –
Nc1ncnc2c1ncn2[C@@H]1O[C@H](COP(=O)(O)OP(=O)(O)O)[C@@H](O)[C@H]1O [ADP] | – | ADP is recognized by several residues from both the CORE and LID domains
